# Results reported in patent US20220370385A1, “COMPOSITIONS FOR USE IN INHIBITING SRC KINASE AND TREATING AND PREVENTING ASSOCIATED DISORDERS” (Enzene Biosciences Ltd., priority 2019, published 2022).
# Entries after “also recorded” stand apart in the source; their conditions may differ.
# Tests used:
# [1] = Maximum tolerated dose study, oral gavage; format: in vivo; conditions: single oral gavage
# Experimental: A maximum tolerated dose (MTD) study was carried out with E05. In MTD study, group of 3 male and 3 female rats were dosed at 175 (group 1), 550 (group 2), 1750 (group 3) and 2000 (group 4) mg/kg b. wt.
# [2] = system: breast cancer cell line BT-474; assay: Anti-proliferative activity in BT-474; format: cell-based
# MDA-MB-468 = assay: Murine xenograft model of Triple-Negative Breast Cancer; format: in vivo, SCID mice; conditions: oral, twice daily
# Experimental: Efficacy study of E05 and positive control (5-Fluorouracil) were carried out in a murine xenograft model of Triple-Negative Breast Cancer (MDA-MB-468). Dosing was done as per the Table. 3.
# Female SCID (Severe Combined Immunodeficient) mice were used for this study.
# Approximately 5×10^6 cells in 0.2 mL FBS free medium containing 50% of Matrigel was injected into sub-cutaneous tissue on right flank of each mouse. Treatment with E05 or with positive control was initiated when average tumor volume reaches ˜100 mm3. Tumor volume was measured periodically.
# MDA-MB-468 cells = assay: MDA-MB-468 cell viability, CellTiter-Glo, 8 hrs, comparison with lapatinib; format: cell-based, human; conditions: MDA-MB-468, within 8 hrs of incubation
# Experimental: MDA-MB-468 cells (ATCC #HTB-32) were seeded with a density of 5,000 cells per well in a 96 well white plate (Costar Cat #3917) in DMEM media supplemented with 10% FBS (assay medium). The plates were incubated at 37° C., 5% CO2 for 24 hr. E05 and Lapatinib was diluted in the assay medium and added to the respective wells of the assay plates. The plates were further incubated at 37° C., 5% CO2 for 8 hrs. After the incubation, the cell viability was assessed using CellTiter-Glo® and the plates were read for luminescence using Cytation 5 (Biotek). The relative luminescence unit (RLU) obtained was plotted against the concentration and EC50 values were estimated using Graphpad Prism 5 software.
structure (smiles),measurement,setting,value
"O=C(O)CCc1ccc(O)c(O)c1 [E05, 3-(3,4-Dihydroxyphenyl) propanoic acid]",Mortality on Experimental Day 1,[1]; Female G1 175 mg/kg b. wt.,0
same,Mortality on Experimental Day 2,[1]; Female G1 175 mg/kg b. wt.,0
same,Mortality on Experimental Day 3,[1]; Female G1 175 mg/kg b. wt.,0
same,Mortality on Experimental Day 4,[1]; Female G1 175 mg/kg b. wt.,0
same,Morbidity on Experimental Day 1,[1]; Female G2 550 mg/kg b. wt.,0
same,Morbidity on Experimental Day 2,[1]; Female G2 550 mg/kg b. wt.,0
same,Morbidity on Experimental Day 3,[1]; Female G2 550 mg/kg b. wt.,0
same,Morbidity on Experimental Day 4,[1]; Female G2 550 mg/kg b. wt.,0
same,Mortality on Experimental Day 1,[1]; Female G2 550 mg/kg b. wt.,0
same,Mortality on Experimental Day 2,[1]; Female G2 550 mg/kg b. wt.,0
same,Mortality on Experimental Day 3,[1]; Female G2 550 mg/kg b. wt.,0
same,Mortality on Experimental Day 4,[1]; Female G2 550 mg/kg b. wt.,0
same,Morbidity on Experimental Day 1,[1]; Female G3 1750 mg/kg b. wt.,0
same,Morbidity on Experimental Day 2,[1]; Female G3 1750 mg/kg b. wt.,0
same,Morbidity on Experimental Day 3,[1]; Female G3 1750 mg/kg b. wt.,0
same,Morbidity on Experimental Day 4,[1]; Female G3 1750 mg/kg b. wt.,0
same,Mortality on Experimental Day 1,[1]; Female G3 1750 mg/kg b. wt.,0
same,Mortality on Experimental Day 2,[1]; Female G3 1750 mg/kg b. wt.,0
same,Mortality on Experimental Day 3,[1]; Female G3 1750 mg/kg b. wt.,0
same,Mortality on Experimental Day 4,[1]; Female G3 1750 mg/kg b. wt.,0
same,Morbidity on Experimental Day 1,[1]; Female G4 2000 mg/kg b. wt.,0
same,Morbidity on Experimental Day 2,[1]; Female G4 2000 mg/kg b. wt.,0
same,Morbidity on Experimental Day 3,[1]; Female G4 2000 mg/kg b. wt.,0
same,Morbidity on Experimental Day 4,[1]; Female G4 2000 mg/kg b. wt.,0
same,Mortality on Experimental Day 1,[1]; Female G4 2000 mg/kg b. wt.,0
same,Mortality on Experimental Day 2,[1]; Female G4 2000 mg/kg b. wt.,0
same,Mortality on Experimental Day 3,[1]; Female G4 2000 mg/kg b. wt.,0
same,Mortality on Experimental Day 4,[1]; Female G4 2000 mg/kg b. wt.,0
same,Morbidity on Experimental Day 1,[1]; Male G1 175 mg/kg b. wt.,0
same,Morbidity on Experimental Day 2,[1]; Male G1 175 mg/kg b. wt.,0
same,Morbidity on Experimental Day 3,[1]; Male G1 175 mg/kg b. wt.,0
same,Morbidity on Experimental Day 4,[1]; Male G1 175 mg/kg b. wt.,0
same,Mortality on Experimental Day 1,[1]; Male G1 175 mg/kg b. wt.,0
same,Mortality on Experimental Day 2,[1]; Male G1 175 mg/kg b. wt.,0
same,Mortality on Experimental Day 3,[1]; Male G1 175 mg/kg b. wt.,0
same,Mortality on Experimental Day 4,[1]; Male G1 175 mg/kg b. wt.,0
same,Morbidity on Experimental Day 1,[1]; Male G2 550 mg/kg b. wt.,0
same,Morbidity on Experimental Day 2,[1]; Male G2 550 mg/kg b. wt.,0
same,Morbidity on Experimental Day 3,[1]; Male G2 550 mg/kg b. wt.,0
same,Morbidity on Experimental Day 4,[1]; Male G2 550 mg/kg b. wt.,0
same,Mortality on Experimental Day 1,[1]; Male G2 550 mg/kg b. wt.,0
same,Mortality on Experimental Day 2,[1]; Male G2 550 mg/kg b. wt.,0
same,Mortality on Experimental Day 3,[1]; Male G2 550 mg/kg b. wt.,0
same,Mortality on Experimental Day 4,[1]; Male G2 550 mg/kg b. wt.,0
same,Morbidity on Experimental Day 1,[1]; Male G3 1750 mg/kg b. wt.,0
same,Morbidity on Experimental Day 2,[1]; Male G3 1750 mg/kg b. wt.,0
same,Morbidity on Experimental Day 3,[1]; Male G3 1750 mg/kg b. wt.,0
same,Morbidity on Experimental Day 4,[1]; Male G3 1750 mg/kg b. wt.,0
same,Mortality on Experimental Day 1,[1]; Male G3 1750 mg/kg b. wt.,0
same,Mortality on Experimental Day 2,[1]; Male G3 1750 mg/kg b. wt.,0
same,Mortality on Experimental Day 3,[1]; Male G3 1750 mg/kg b. wt.,0
same,Mortality on Experimental Day 4,[1]; Male G3 1750 mg/kg b. wt.,0
same,Morbidity on Experimental Day 1,[1]; Male G4 2000 mg/kg b. wt.,0
same,Morbidity on Experimental Day 2,[1]; Male G4 2000 mg/kg b. wt.,0
same,Morbidity on Experimental Day 3,[1]; Male G4 2000 mg/kg b. wt.,0
same,Morbidity on Experimental Day 4,[1]; Male G4 2000 mg/kg b. wt.,0
same,Mortality on Experimental Day 1,[1]; Male G4 2000 mg/kg b. wt.,0
same,Mortality on Experimental Day 2,[1]; Male G4 2000 mg/kg b. wt.,0
same,Mortality on Experimental Day 3,[1]; Male G4 2000 mg/kg b. wt.,0
same,Mortality on Experimental Day 4,[1]; Male G4 2000 mg/kg b. wt.,0
same,inhibition of growth,[2],dose dependent response; also recorded: dose dependent inhibition of growth
same,efficacy in the murine xenograft model of TNBC,MDA-MB-468; 6 weeks,statistically significant efficacy
same,tumor volumes,"MDA-MB-468; 6 weeks, 75, 200, 500 mg/kg",Dose dependent decrease in tumor volumes
same,inhibition compared with lapatinib,MDA-MB-468 cells,stronger inhibition in compare to lapatinib
